In US20020058591A1, “Herbicidal compositions” (priority 2000, published 2002):

Assays:
Format in all cases: in vivo
Bromus tectorum (BROTE) = test: Example B.3 post-emergence spray, pots in the open, minimal irrigation, visual scoring; conditions: A1 10 g a.i./ha (surfactant 300, humectant 300 g a.i./ha where combined), 28 days after application
Method: (§1) The individual components herbicide, surfactant and humectant with regard to type and application rate as stated in Tables 1-4 were added with stirring to a water application rate of 300 l/ha so that a homogeneous spray mixture was formed. The active substances rimsulfuron and nicosulfuron in the commercially available formulations Cato® WG25 (Du Pont) and Motivell® (BASF) were used for this purpose, respectively. Iodosulfuron-methyl-sodium and mesosulfuron-methyl were added in each case as 20 percent water-dispersible powders. Foramsulfuron was used as 50 percent water-dispersible granules. The surfactants used were Genapol® LRO as 70 percent paste (Clariant) and Synperonic® A7 (Unichema).
(§2) Visual scoring was carried out using a percentage scale of 0%=no damage to 100%=all plants dead.
Seeds of the harmful plant BROTE were sown in a sandy loam soil in round pots type 13 in the open and watered slightly. During the entire experimental period, the substrate only received minimal irrigation. Four weeks after sowing, the plants were treated on a laboratory spray conveyor with spray mixtures of components mesosulfuron-methyl (A1), Genapol® LRO and sodium lactate, A1, Synperonic®A7 and sodium lactate and A1, Genapol® LRO and propylene glycol, the spray mixtures being prepared as in Example A. The water application rate for the spray application of the preparations was 300 l/ha. […]

Avena fatua (AVEFA) [1] = test: Example B.1 post-emergence spray, controlled-environment cabinet, minimal irrigation, visual scoring; conditions: A1 60 g a.i./ha (Genapol LRO 324, sodium lactate 150 g a.i./ha where combined); 14 days after application; 0%=no damage, 100%=all plants dead; 50% rel. humidity
Method: as §1, §2
(§3) Seeds of the harmful plants AVEFA and LOLMU were sown in a sandy loam soil in round pots type 13 in a controlled-environment cabinet and watered slightly. During the entire experiment period, the substrate only received minimal irrigation. A daytime temperature of 18° C. and a nighttime temperature of 16° C. was adhered to, a uniform day length of 16 hours being achieved by additional illumination with sodium vapor lamps (approx. 7000 lux). The relative atmospheric humidity was 50%. […]

[2] = tested on: Lolium multiflorum (LOLMU); test: as above; conditions: A1 60 g a.i./ha (Genapol LRO 324, sodium lactate 150 g a.i./ha where combined); 14 days after application; 0%=no damage, 100%=all plants dead; 50% rel. humidity
Method: as §1, §2, §3

Avena fatua (AVEFA) [3] = test: Example B.2 post-emergence spray, greenhouse, visual scoring; conditions: 28 days after application
Method: as §1, §2
(§4) Seeds of the harmful plants LOLMU, ALOMY, AVEFA, ECHCG and DIGSA were sown in a sandy loam soil in round pots type 7 in a greenhouse and watered slightly. A daytime temperature of 22 to 24° C. and a nighttime temperature of 16 to 18° C. was adhered to, a uniform day length of 16 hours being achieved by additional illumination with sodium vapor lamps (approx. 7000 lux). The relative atmospheric humidity was 60 to 80%. Two weeks after sowing, the plants were treated on a laboratory spray conveyor with the spray mixtures of rimsulfuron (A2), nicosulfuron (A3), iodosulfuron-methyl sodium (A4) and foramsulfuron (A5) and of combinations of A2, A3, A4 and A5 with Genapol® LRO and sodium lactate, the spray mixtures being prepared as in Example A. The water application rate for the spray application of the preparations was 300 l/ha. After the treatment, the plants were returned to the greenhouse.

[4] = tested on: Alopecurus myosuroides (ALOMY); test: as above; conditions: 28 days after application
Method: as §1, §2, §4

[5] = tested on: Lolium multiflorum (LOLMU); test: as above; conditions: 28 days after application
Method: as §1, §2, §4

[6] = tested on: Echinochloa crus-galli (ECHCG); test: as above; conditions: 28 days after application
Method: as §1, §2, §4

[7] = tested on: Digitaria adscendens (DIGSA); test: as above; conditions: 28 days after application
Method: as §1, §2, §4

**Q.** COC(=O)c1ccc(CNS(C)(=O)=O)cc1S(=O)(=O)NC(=O)Nc1nc(OC)cc(OC)n1 [A1, methyl 2-[3-(4,6-dimethoxypyrimidin-2-yl)ureidosulfonyl]4-methanesulfonamido-methylbenzoate] was tested. Which “Action [%] against harmful plants BROTE” value (Bromus tectorum (BROTE)) did it give?
**A.** 12.5%

**Q.** What about the “Action [%] against harmful plants AVEFA” value (Avena fatua (AVEFA) [1]) of the same molecule?
**A.** 10%

**Q.** What about the “Action [%] against harmful plants LOLMU” value [2] of the same molecule?
**A.** 10%

**Q.** How did the “Action [%] against harmful plants AVEFA” value (Avena fatua (AVEFA) [3]; herbicide 5 g a.i./ha) turn out when CCS(=O)(=O)c1cccnc1S(=O)(=O)NC(=O)Nc1nc(OC)cc(OC)n1 [A2] was run?
**A.** 0%

**Q.** And the “Action [%] against harmful plants ALOMY” value ([4]; herbicide 5 g a.i./ha)?
**A.** 70%

**Q.** What about the “Action [%] against harmful plants LOLMU” value ([5]; herbicide 5 g a.i./ha) of the same molecule?
**A.** 60%

**Q.** And the “Action [%] against harmful plants ECHCG” value ([6]; herbicide 5 g a.i./ha)?
**A.** 10%

**Q.** What about the “Action [%] against harmful plants DIGSA” value ([7]; herbicide 5 g a.i./ha) of the same molecule?
**A.** 30%

**Q.** What does the source list for COc1cc(OC)nc(NC(=O)NS(=O)(=O)c2ncccc2C(=O)N(C)C)n1 [A3, 1-(3-N,N-dimethylaminocarbonylpyridin-2-ylsulfonyl)-3-(4,6-dimethoxypyrimidin-2-yl)urea]?
**A.** Action [%] against harmful plants AVEFA (Avena fatua (AVEFA) [3]; herbicide 20 g a.i./ha): 0%; Action [%] against harmful plants ALOMY ([4]; herbicide 20 g a.i./ha): 0%; Action [%] against harmful plants ECHCG ([6]; herbicide 20 g a.i./ha): 0%

**Q.** Which “Action [%] against harmful plants AVEFA” value (Avena fatua (AVEFA) [3]; herbicide 20 g a.i./ha) does the source give for COC(=O)c1ccc(I)cc1S(=O)(=O)NC(=O)Nc1nc(C)nc(OC)n1 [A4, 3-(4-methoxy-6-methyl-1,3,5-triazin-2-yl)-1-(2-methoxycarbonyl-5-iodophenyl-sulfonyl)urea] here?
**A.** 60%

**Q.** And the “Action [%] against harmful plants ALOMY” value ([4]; herbicide 20 g a.i./ha)?
**A.** 50%

**Q.** What about the “Action [%] against harmful plants LOLMU” value ([5]; herbicide 20 g a.i./ha) of the same molecule?
**A.** 60%

**Q.** What about the “Action [%] against harmful plants ECHCG” value ([6]; herbicide 20 g a.i./ha) of the same molecule?
**A.** 70%

**Q.** What about the “Action [%] against harmful plants DIGSA” value ([7]; herbicide 20 g a.i./ha) of the same molecule?
**A.** 30%

**Q.** How did the “Action [%] against harmful plants AVEFA” value (Avena fatua (AVEFA) [3]; herbicide 20 g a.i./ha) turn out when COc1cc(OC)nc(NC(=O)NS(=O)(=O)c2cc(NC=O)ccc2C(=O)N(C)C)n1 [A5, N,N-dimethyl-2-[3-(4,6-dimethoxypyrimidin-2-yl)ureidosulfonyl]4-formylamino-benzamide] was run?
**A.** 60%

**Q.** What about the “Action [%] against harmful plants ALOMY” value ([4]; herbicide 20 g a.i./ha) of the same molecule?
**A.** 70%

**Q.** What about the “Action [%] against harmful plants LOLMU” value ([5]; herbicide 20 g a.i./ha) of the same molecule?
**A.** 50%

**Q.** And the “Action [%] against harmful plants ECHCG” value ([6]; herbicide 20 g a.i./ha)?
**A.** 30%

**Q.** And the “Action [%] against harmful plants DIGSA” value ([7]; herbicide 20 g a.i./ha)?
**A.** 0%
